Reference: patent publication US9296716B2, “Androgen receptor ligands” (THE PROVOST, FELLOWS, FOUNDATION SCHOLARS, & THE OTHER …, priority 2011, dated 2016)
Read-outs that look alike come from different tables or passages of the source.

Key:
[1] = target: T1, AR-LBD wt (Homo sapiens, UniProt P10275); assay: Lanthascreen TR-FRET AR coactivator (D11-FxxLF) assay, AR-LBD wt; format: biochemical; settings: for IC50: TR-FRET, D11-FxxLF peptide, DHT = EC80
T1 sequence (P10275 669-900 limits assumed): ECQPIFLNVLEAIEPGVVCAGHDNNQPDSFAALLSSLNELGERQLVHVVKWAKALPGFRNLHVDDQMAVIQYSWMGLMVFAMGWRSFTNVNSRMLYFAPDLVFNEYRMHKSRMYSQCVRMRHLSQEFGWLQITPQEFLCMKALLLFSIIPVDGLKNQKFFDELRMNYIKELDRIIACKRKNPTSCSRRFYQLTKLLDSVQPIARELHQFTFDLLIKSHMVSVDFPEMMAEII

[2] = target: T2, Progesterone Receptor (PR) LBD (Homo sapiens, UniProt P06401); assay: TR-FRET SRC1-4 coactivator recruitment assay, PR LBD; format: biochemical; settings: Progesterone = EC80
T2 construct: purchased Invitrogen PV4666
T2 sequence (P06401 679-913 limits assumed): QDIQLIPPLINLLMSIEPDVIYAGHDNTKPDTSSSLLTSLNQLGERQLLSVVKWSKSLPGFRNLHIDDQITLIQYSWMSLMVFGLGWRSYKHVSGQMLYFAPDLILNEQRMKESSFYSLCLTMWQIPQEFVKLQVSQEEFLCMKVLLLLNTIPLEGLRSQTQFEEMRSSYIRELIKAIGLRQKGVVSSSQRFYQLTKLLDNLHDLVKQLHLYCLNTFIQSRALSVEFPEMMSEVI
Protocol: (§1) Compound binding affinities for Progesterone Receptor (PR), Glucocorticoid Receptor (GR), Estrogen Receptor alpha and Estrogen Receptor beta were determined using TR-FRET (Table 2).
(§2) Lanthascreen TR-FRET AR Coactivator Assay kit (Invitrogen, cat no. PV4381) was used to screen for potential coactivator disruptors.
(§3) TR FRET values were calculated at 10 flashes per well, using a delay time of 100 μs and integration time 200 μs as recommended by the Invitrogen assay guidelines. […] A serial dilution of compounds was firstly prepared in 100×DMSO (Sigma-Aldrich) starting from the maximum desired concentration to achieve a 12 point range concentration using 96-well polypropylene plates (Nalgene Nunc, Rochester, N.Y.). Each 100× solution was diluted to 2× concentration with TR-FRET co-regulator buffer A (Invitrogen proprietary buffer), yielding a final concentration of 1% DMSO in each well.
(§4) D11-FxxLF and Tb antibody were premixed in light protecting vials prior to use. A final concentration of DTT 5 mM was used in the assay buffer in order to prevent protein degradation. All plates (agonist and antagonist mode) were incubated between 2 and 4 hours at room temperature protected from light prior to TR-FRET measurement. […] Data was fitted using the sigmoidal dose response (variable slope) available from Graphpad Prism 5. Y=Bottom+(Top-Bottom)/(1+10^((Log IC50−X)*HillSlope))
(§5) The same procedure was used for AR T877A (Invitrogen cat no. PV4667), PR (Invitrogen cat no. PV4666), ER-α (Invitrogen cat no. PV4544), ER-β (Invitrogen cat no. PV4541) and GR (Invitrogen cat no. PV4683). The assay was adapted to exclude possible non-specific aggregation mechanism of inhibition by adding very low concentration of detergent Triton X-100 (0.001%) to the assay buffer following the Shoichet review guidelines [Shoichet BK (2006) Screening in a spirit haunted world. Drug Discov Today 11:607-615].

[3] = target: Estrogen Receptor beta (ER-β) LBD (Homo sapiens, UniProt Q92731); assay: TR-FRET PGC1-α coactivator recruitment assay, ERβ LBD; format: biochemical; settings: Estradiol = EC80
Protocol: as §1
Selectivity of the diarylhydrazide scaffold for the AR was determined through a TR-FRET assay in ERα (FIGS. 8A & 9A1) and ERR (FIGS. 8B & 9A2). […] The non-LBP nature of this inhibition was confirmed by a FP assay (FIGS. 9C, 9B1 & 9B2).
as §2, §3, §4, §5

[4] = system: LNCaP cells; assay: LNCaP cell proliferation assay (androgen deprived, AlamarBlue); format: cell-based; settings: LNCaP
Protocol: To determine the optimal DHT concentration and length of treatment required for cell proliferation assays, we tested a range of DHT concentrations in 0.1% DMSO for 5 or 7 days in LNCaP cells cultured in FBS stripped phenol red free media. […] Media and treatments were replaced every second incubation day (FIGS. 12 A and B)
For cell viability (end point) assays LNCaP, PC-3 and PWR-1E cells were seeded at 2.5*10^4/ml density in 200 μl volume of a 96-well plate in triplicate and incubated for 24 hours prior testing. Test compounds were included at different concentrations to achieve a final concentration of 0.5% DMSO in each well. Effect of 0.5% DMSO on cell-viability was also evaluated. Cell viability was assessed after 24 hours of treatment using 10% Alamar Blue reagent (Invitrogen) for each well. Cell viability was monitored by the reduction of resazurin, a blue, cell-permeable and non-toxic compound, to resorufin, a red and highly fluorescent product. Viable cells continuously convert resazurin to resorufin, increasing the overall colour and fluorescence of the media surrounding cells. Fluorescence intensity can be quantitatively determined with a fluorescence microplate reader at excitation/emission 544 nm/590 nm (Spectramax Gemini). For hormone dependent cell proliferation assays in androgen deprived LNCaP cells, cells were seeded at 2*10^4 cells/ml in a 24-well plate in triplicate. Cells were plated in phenol red free RPMI Glutamax (Invitrogen) supplemented with 10% charcoal-stripped FBS to deplete endogenous steroids 48 hours prior the assay as described in previous reports. […] Cells were treated with different concentrations of test compounds with or without 0.1 nM DHT to achieve a final concentration of 0.1% DMSO in each well. A control for the vehicle was included to ensure no effect on viability could be detected. Media and treatments were replaced every second day, after washing the cells twice with 1×PBS. Supernatants were collected after five days for secreted PSA levels evaluation and cell proliferation was assessed for the same plate using Alamar Blue in order to exclude non-specific effects due to toxicity issues.

[5] = system: PSA expression in 22Rv1 cells; assay: PSA ELISA, secreted PSA in 22Rv1 cells; format: cell-based
Protocol: To investigate compounds effect on PSA expression, a common biomarker for prostate cancer, we utilized a human PSA ELISA assay.
We repeated the same experiment in 22Rv1 cell line.
Secreted levels of prostate specific antigen were evaluated with a commercially available kit (Quantikine Human Kallikrein 3/PSA Immunoassay, R&D systems). The assay was performed following manufacturer's guidelines. In brief, 50 μl of standards and cell culture samples were added to pre-coated wells containing assay diluent RD1W (R&D systems) and incubated for two hours at room temperature. Unbound material was washed several times and 200 μl of Horseradish Peroxidase (HRP) labeled PSA conjugate antibody was added to each well and further incubated for two hours at room temperature. Wells were washed and treated with colored substrate (Tetramethylbenzidine) for an additional 30 minutes, after which 50 μl of stop solution (Sulphuric Acid 2N) was added per well and absorbance (450 nm with correction at 540 nm) was read with a plate reader within 30 minutes (Versamax).

Estrogen Receptor beta (ER-β) LBD, sequence (Q92731 264-498 limits assumed): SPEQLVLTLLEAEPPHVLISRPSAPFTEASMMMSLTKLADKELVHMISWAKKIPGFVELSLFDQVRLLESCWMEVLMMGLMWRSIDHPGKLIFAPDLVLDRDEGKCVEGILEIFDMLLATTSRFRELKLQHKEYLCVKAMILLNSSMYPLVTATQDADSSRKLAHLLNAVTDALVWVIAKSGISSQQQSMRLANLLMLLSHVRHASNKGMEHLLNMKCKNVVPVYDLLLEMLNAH

COc1cc(/C=N/NC(=O)c2cc3c(ccc4ccccc43)o2)cc(OC)c1O [MDG506]
type of AR antagonism (full / partial) ([1]; TR-FRET in agonist and antagonist mode): full AR antagonists | IC50 ([1]; read-out: AR (wt)): 26.3 ± 3.8 µM | IC50 ([1]; read-out: Activity (AR wt TR-FRET)): 26.3 ± 3.8 µM | effect on PR recruitment of fluorescent labelled SRC1-4 ([2]; 100 μM to 45 nM): partially inhibit | IC50 ([2]; TR-FRET, ± SEM (n = 6), read-out: NR LBDs IC50 (μM) PR): 27.7 ± 7.3 µM | effect on ERβ recruitment of fluorescent labelled PGC1-α ([3]; 100 μM to 45 nM): partially inhibit | IC50 ([3]; TR-FRET, ± SEM (n = 6), read-out: NR LBDs IC50 (μM) ER-β): > 100 µM | DHT dependent cell proliferation ([4]; DHT 0.1 nM, 5 days): clear dose dependent effect in reducing | CPA induced cell proliferation ([4]; MDG506 at 10 or 20 μM): reduces | cell proliferation in absence of DHT / androgens ([4]; androgen deprived media, no DHT): does not induce | DHT stimulated PSA expression ([5]; 22Rv1): no effect could be seen | PSA expression in absence of androgens ([5]; 22Rv1): does not induce | CPA stimulated PSA expression ([5]; 22Rv1, MDG506 at different concentrations): reduced
